For the experiment, the system named is Human platelet-rich plasma (blood platelets). The experiment is described as follows: Collagen-induced blood platelet aggregation (aggregometer method of Born; maximum aggregation velocity). Format: cell-based. The settings on record: human citrated platelet-rich plasma, 10 min preincubation at 37° C., collagen fibrils. As to the method: The maximum aggregation velocity was taken as the test parameter and the effective concentration (EC50) was ascertained from dosage-activity curves.
Human platelet-rich plasma was obtained by centrifugation from citrated venous blood. The experiments were carried out with suspensions of the test substances in 0.9% sodium chloride. 0.18 ml of citrate plasma was treated with a 10 μl suspension of the test compound and incubated at 37° C. for 10 minutes, whereupon the aggregation was initiated by adding 10 μl of a suspension of collagen fibrils.

Broadly, the EC50 is the concentration needed to bring the measured effect to its halfway point. As to `CC(C)(C)c1nc(-c2ccccc2)[nH]c1C(C)(C)C` [4,5-Di-t-butyl-2-phenylimidazole, 4,5-di-t-butyl-2-phenylimidazole], a half-maximal response (EC50) required 600 nM.
Regarding `COc1cc(-c2nc(C(C)(C)C)c(C(C)(C)C)[nH]2)cc2c1OCO2` [4,5-di-t-butyl-2-(5-methoxy-3,4-methylenedioxyphenyl)-imidazole], the EC50 amounted to 14400 nM.
Compound `COc1cc(-c2nc(C(C)(C)C)c(C(C)(C)C)[nH]2)cc(OC)c1OC` [4,5-di-t-butyl-2-(3,4,5-trimethoxyphenyl)-imidazole] gave a concentration for a half-maximal effect (EC50) of 720 nM.
The figure for `CC(C)(C)c1nc(-c2ccc(F)cc2)[nH]c1C(C)(C)C` [4,5-Di-t-butyl-2-(4-fluorophenyl)-imidazole] is 500 nM; for `CC(C)(C)c1nc(-c2ccc3c(c2)OCO3)[nH]c1C(C)(C)C` [4,5-di-t-butyl-2-(3,4-methylenedioxyphenyl)-imidazole] it is 550 nM.

The values are drawn from US4582844A, “Antithrombotic 4,5 di-t-butyl-imidazole derivatives” (Hoffmann-La Roche Inc., priority 1980, dated 1986).
